Experimental data: patent US4075332A (priority 1976, dated 1978)
Like-named read-outs stand apart in the source and are kept apart here.

Legend:
Spider mites [1] = assay: Mite, Systemic; type: in vivo, two-spotted mite; settings: Tetranychus urticae
Description: (§1) In the insecticidal and miticidal tests, the experimental compounds were tested as aqueous emulsions. These emulsions were prepared by dissolving the compound in acetone and dispersing it in distilled water with Triton X-100, an alkylaryl polyether alcohol derived by the reaction of i-octylphenol with ethylene oxide, to give spray emulsions containing the desired concentrations of the compound. These emulsions were then used in standard laboratory tests described below.
Mite, Systemic: Bean plants infested with the two-spotted mites were treated by applying 20 ml. of the formulated test chemical to the soil.

Bean aphids [2] = assay: Aphid, Systemic; type: in vivo, bean aphid; settings: Aphis fabae, 48 h
Description: as §1
Aphid, Systemic: Nasturtium plants infested with the bean aphid were treated by applying 20 ml. of the formulated test chemical to the soil. The degree of aphid control was rated after 2 days.

Mexican bean beetle = assay: whole plant or invertebrate; settings: Epilachna varivestis
Spider mites [3] = assay: whole plant or invertebrate; settings: Tetranychus urticae; for mortality at 250 ppm / mortality at 50 ppm: 48 h
Bean aphids [4] = assay: whole plant or invertebrate; settings: Aphis fabae, 48 h
House fly = assay: whole plant or invertebrate; settings: Musca domestica, 48 h
Southern army worm = settings: in vivo
Root-knot nematode = settings: in vivo
Corn rootworm larvae = assay: whole plant or invertebrate; settings: soil, 120 h, read-out: Corn Rootworm Mortality,%
[5] = read-out: Mortality, % - Spider Mites Systemic
[6] = read-out: Mortality, % - Bean Aphids Systemic
[7] = read-out: Mortality, % - Mexican Bean Beetles
[8] = read-out: Mortality, % - Spider Mites Contact
[9] = read-out: Mortality, % - Bean Aphids Contact
[10] = read-out: Mortality Produced, % - Spider Mites Systemic
[11] = read-out: Mortality Produced, % - Bean Aphids Systemic
[12] = read-out: Mortality Produced, % - Mex.Bean Beetle
[13] = read-out: Mortality Produced, % - Spider Mites Contact
[14] = read-out: Mortality Produced, % - Bean Aphids Contact
[15] = read-out: Mortality Produced, % - House Flies
[16] = read-out: Mortality Produced, % -

SMILES | mortality at 50 ppm (Spider mites [1]; [10]) [%] | mortality at 250 ppm (Spider mites [1]; [10]) [%] | mortality at 50 ppm (Bean aphids [2]; [11]) [%] | mortality at 250 ppm (Bean aphids [2]; [11]) [%] | mortality at 50 ppm (Mexican bean beetle; [12]) [%] | mortality at 250 ppm (Mexican bean beetle; [12]) [%] | mortality at 50 ppm (Spider mites [3]; [13]) [%] | mortality at 250 ppm (Spider mites [3]; [13]) [%] | mortality at 50 ppm (Bean aphids [4]; [14]) [%] | mortality at 250 ppm (Bean aphids [4]; [14]) [%] | mortality at 50 ppm (House fly; [15]) [%] | mortality at 250 ppm (House fly; [15]) [%] | also measured
CCCSCCSP(=O)(OCC)SCCC (stereo not shown) [Example 2, O-Ethyl S-1-Propyl S'-2-n-Propylthioethyl Dithiophosphate] | – | – | – | – | – | – | – | – | – | – | – | – | mortality at 250 ppm (Spider mites [1]; [5]): 100%; mortality at 250 ppm (Bean aphids [2]; [6]): 75%; mortality at 250 ppm (Mexican bean beetle; [7]): 100%; mortality at 250 ppm (Spider mites [3]; [8]): 100%; mortality at 250 ppm (Bean aphids [4]; [9]): 90%; mortality at 250 ppm (House fly; read-out: Mortality, % - House Flies): 100%
CCCSP(=O)(OCC)SCCSc1ccc(Cl)cc1 (stereo not shown) [Example 5, O-Ethyl S-1-Propyl S'-2-p-Chlorophenylthioethyl Dithiophosphate] | – | – | – | – | – | – | – | – | – | – | – | – | mortality at 250 ppm (Spider mites [1]; [5]): 40%; mortality at 250 ppm (Bean aphids [2]; [6]): 10%; mortality at 250 ppm (Mexican bean beetle; [7]): 100%; mortality at 250 ppm (Spider mites [3]; [8]): 100%; mortality at 250 ppm (Bean aphids [4]; [9]): 95%
CCOP(=O)(SCC(C)C)SCC(C)SC (stereo not shown) [Example 37, O-Ethyl S-2-Methylpropyl S'-2-Methylthiopropyl Dithiophosphate] | 100 | 100 | 70 | 100 | 100 | 100 | 60 | 100 | 10 | 100 | 45 | 100 | –
CCCSP(=O)(OC)SCC(C)SC (stereo not shown) [Example 40, O-Methyl S-1-Propyl S'-2-Methylthiopropyl Dithiophosphate] | 100 | 100 | 100 | 100 | 0 | 100 | 100 | 100 | – | – | 100 | 100 | mortality at 50 ppm (Bean aphids [4]; [16]): 100%; mortality at 250 ppm (Bean aphids [4]; [16]): 100%
CCCCSP(=O)(OCC)SCC(C)SC (stereo not shown) [Example 41, O-Ethyl S-1-Butyl S'-Methylthiopropyl Dithiophosphate] | 0 | 100 | 0 | 40 | 80 | 100 | 100 | 100 | 60 | 100 | 0 | 100 | Mortality Produced, % - S.Army Worm (Southern army worm; southern armyworm): 0%
CCCSP(=O)(OCC)SCC(C)SC(C)C (stereo not shown) [Example 35, O-Ethyl S-1-Propyl S'-2-i-Propylthiopropyl Dithiophosphate] | – | – | – | – | – | – | – | – | – | – | – | – | Nematode Control,% (Root-knot nematode): 100%; S.Armyworm Mortality,% (Southern army worm): 100%; mortality at 50 ppm (Mexican bean beetle; read-out: Mexican Bean Beetles Mortality,%): 100%; mortality at 10 ppm (Spider mites [3]; read-out: Spider Mites Mortality,%): 100%; mortality at 50 ppm (Bean aphids [4]; read-out: Bean Aphids Mortality,%): 50%; mortality at 2.5 ppm (Corn rootworm larvae): 70%
CCCOP(=O)(SCCC)SCC(C)SC (stereo not shown) [Example 43, O,S-Di-n-propyl S'-2-Methylthiopropyl dithiophosphate] | 0 | 100 | 0 | 20 | 80 | 100 | 50 | 100 | – | – | 70 | 100 | Mortality Produced, % - S.Army Worm (Southern army worm; southern armyworm): 0%; mortality at 50 ppm (Bean aphids [4]; [16]): 80%; mortality at 250 ppm (Bean aphids [4]; [16]): 80%
CCOP(=S)(OCC)SCSc1ccc(Cl)cc1 [Trithion, reference compound] | – | – | – | – | – | – | – | – | – | – | – | – | Southern Army Worm Mortality, % (Southern army worm; southern armyworm): 0%; mortality at 100 ppm (Mexican bean beetle; read-out: Mexican Bean Beetle Larvae Mortality, %): 90%; mortality at 20 ppm (House fly; read-out: House Fly Spray Mortality, % (at 20 ppm)): 80%
CCOP(=O)(SCC(C)SC)SC(C)C (stereo not shown) [Example 42, O-Ethyl S-2-Propyl S-2-Methylthiopropyl Dithiophosphate] | 0 | 100 | 20 | 80 | 100 | 100 | 100 | 100 | 50 | 100 | 0 | 100 | –
